Results published in patent publication US4956355A, “Agents for the arrest and therapy of retroviral infections” (Colthurst Limited, priority 1987, dated 1990).

Tests used:
[1] = system: HIV in VB T lymphoma cell line; experiment: Inhibition of HIV mediated cytopathic effects (multinucleated giant/syncytial cell formation) in acutely infected VB tumor cell line; assay type: cell-based
Protocol: (§1) 1. […] All three viral strains were grown in the Tissue Culture Laboratory of the AIDS Activity Division of San Francisco General Hospital where titers of […] infectious units per ml were routinely achieved.
(§2) 2. Source of cells: The VB cell line used in Example 1 is a T lymphoma cell line that is highly susceptible to infection with HIV, and expresses high levels of cell surface CD4 molecules. This cell line forms syncytia within two days after infection with all strains of HIV tested to date. […] This is used to quantitate infection in the absence of syncytial formation, infection being quantitated by immunofluorescence assays. The HXB/H9 cell line (Example 6) is an H9 cell population that chronically produces the HTLV-IIIB strain of HIV and is utilised in experiments testing antiviral effects on chronically infected cell lines. Human macrophages were prepared from peripheral blood mononuclear cells either obtained from the blood bank as a buffy coat, or as a leukophoresis preparation. Crowe et al. supra have devised an assay system that allows quantitation of HIV infection, and inhibition of infection using immunocytofluorographic analysis. In order to quantitate HIV infection in macrophages, they grow macrophages in Teflon (Trade Mark) culture vessels which maintain macrophages in suspension in vitro culture for up to six months. Cell surface and cytoplasmic immunofluorescence staining is then performed to quantitate antigens in macrophages by flow cytometry.
5. Inhibition of acute infection: Several assays were utilized to test for inhibition of acute infection; these included:
(a) Inhibition of multinucleated giant cell formation in acutely infected VB cells infected at a multiplicity of infection of 1, and scored two days after infection in the presence or absence of varying concentrations of drug, for the formation of multinucleated giant cells. (free virus is washed out after a one hour incubation pretreatment at room temperature). […] Supernatants were also isolated and the level of HIV p24 antigen determined. Infectious virus was measured in treated cultures by performing a syncytial assay as described above.
Compounds A and B were tested for inhibition of T lymphoma cell cytopathic effect at various drug concentrations after acute infection with HIV for 48 hours. […] It is possible that the diminished effects noted in later experiments could have been secondary to drug stability problems.

HIV in human macrophages = experiment: Inhibition of HIV production in normal human macrophages (supernatant p24, acute infection); assay type: cell-based
Protocol: as §1, §2
4. HIV soluble p24 antigen detection: Soluble p24 antigens were measured with the Abbott HIV antigen detection system.
(c) To test whether Compounds A and B were effective at blocking acute infection of macrophages, macrophages from Teflon cultures were exposed at a multiplicity of 1 to HIV-DV in the presence or absence of various concentrations of drug (Examples 3-5). Normally, HIV expression peaks in human macrophages at approximately ten days after initial infection. Therefore, after infection for one hour at room temperature, followed by a wash and resuspension of the macrophages in various drug concentrations, macrophages were stained for the presence of p24 antigen at day ten. Culture supernatants from these macrophages were assayed for the presence of soluble p24, and infectious virus as described above.
To test whether compounds A and B might be active at inhibiting infection of normal human macrophages, a spectrum of drug concentrations were tested for inhibition of acute infection, and inhibition of HIV expression in chronically infected macrophages. […] After acute infection (one hour) cells were incubated in various concentrations of compounds A and B, and 7 days after the initial infection supernatants were harvested for p24 antigen quantitation. […]

[2] = system: peripheral blood lymphocytes; experiment: Nonspecific toxicity to peripheral blood lymphocytes; assay type: cell-based, human
HIV = experiment: Use of dehydroepiandrosterone in AIDS therapy, twelve patients; assay type: in vivo, human patients
Protocol: (§3) Twelve patients all of whom were sero-positive for HIV and had been diagnosed as suffering from AIDS were treated with DHEA for up to six months. The DHEA was administered in the form of hard gelatin capsules containing 100 mg of DHEA and at a rate of 100 mg to 600 mg per day. The vast majority being on 500 mg per day in divided doses. The patients were all homosexual or bisexual males with an average age of 34.5 years and an average weight of 69.6 kg.
Past and present HIV clinical manifestations included: unexplained diarrhoea, Kaposis Sarcoma, Herpes Zoster, Oral Candidiasis, Lymphadenopathy, Oral Hairy Leucoplakia, involuntary weight loss, dermal mycoses and Stapholococcal skin infections.
All of the patients were in an advanced stage of AIDS at the commencement of the trial and normally further deterioration of their condition, or even death, would have been expected over the six month period of the trial. […] Patient 7 gained 8 kg over five months.

[3] = system: human peripheral blood mononuclear (PBM) cells infected with Epstein-Barr virus; settings: cited from earlier work
[4] = system: HIV in chronically infected human macrophages; experiment: Antiviral testing of chronically HIV infected macrophages; assay type: cell-based
Excerpt: as §2
3. Flow cytometry: An Ortho Cytofluorgraf II-S (Trade Mark) that has a biohazard containment flow cell was used for analysis of HIV infected samples. HIV p24 antigens were detected utilizing a mouse monoclonal anti-p24 (du Pont), and mouse antibodies were identified utilizing an FITC conjugated goat anti-mouse IgG.
6. Analysis of chronically infected cells: To determine whether compounds A and B are effective at inhibiting HIV expression in macrophages and chronically infected T cells, the following experiments were performed. The chronically infected T cell line, HXB/H9 was exposed to various concentrations of drug for four days in vitro. At four days, the HXB cells were assayed for the presence of p24 intracytoplasmically, and supernatants were assayed for the presence of infectious virus as described above.
Because macrophages can be infected and produce HIV for very long periods of time without substantial loss of viability, chronically infected cells were tested, specifically a population that was between 30 and 50% HIV antigen positive, for inhibition of cytoplasmic HIV p24 antigen production. FIG. 5 indicates the results of three separate experiments carried out.

mitotic activity = settings: cited from earlier work
[5] = system: permeability of membranes; settings: cited from earlier work
[6] = Safety of dehydroepiandrosterone in subjects; assay type: in vivo, human
Protocol: as §3

complement activation = settings: cited from earlier work
[7] = murine model of SLE; cited from earlier work

Structure (SMILES): C[C@]12CC[C@H](O)CC1=CC[C@@H]1[C@@H]2CC[C@]2(C)C(=O)CC[C@@H]12 [A, dehydroepiandrosterone]
- antiviral effects in comparison with AZT, T lymphoma cells ([1]; acute infection): inferior
- antiviral effect in acute infection studies of T lymphoma cells ([1]; acute infection, conclusions): mild antiviral effect
- inhibition of cytopathic effect in two subsequent experiments ([1]; compounds diluted in DMSO, possibly secondary to drug stability problems): less striking effect
- decrease in production of HIV p24 antigens (supernatant) (HIV in human macrophages; 10^-4 through 10^-8 molar, 7 days after acute infection, FIG. 3): approximately 50%
- HIV infection and HIV expression in macrophages (HIV in human macrophages; in vitro, reproducible, six separate monocyte/macrophage donors): inhibit HIV infection and HIV expression in macrophages
- toxicity with the PBL cultures ([2]; 10^-4 and 10^-5 molar): No appreciable toxicity
- toxicity to peripheral blood lymphocytes ([2]; 10^-4 to 10^-8 molar): nor was there appreciable toxicity
- patients gaining weight (HIV; of twelve patients, up to six months): four
- deterioration in condition (HIV; oral, 100 mg to 600 mg per day, up to six months, twelve advanced AIDS patients): no serious deterioration in condition
- weight gain of Patient 7 (HIV; over five months): 8 kg
- concentrations reducing colony forming ability [3]: 10 to 100 µM
- inhibition compared with inhibition of acute infection of macrophages ([4]; 10^-4 and 10^-5 molar, FIG. 5 vs FIG. 4): somewhat less than the inhibition of acute infection of macrophages
- inhibition of cytoplasmic HIV p24 antigen production in chronically infected macrophages ([4]; both 10^-4 and 10^-5 molar, three experiments, FIG. 5): some inhibition
- effect on mitotic activity (mitotic activity): inhibitory effect
- effect on permeability of membranes [5]: inhibitory effect
- toxicity in treatment of patients infected with HIV ([6]; general statement): virtual absence of toxicity
- adverse physical, biochemical or hematological effects ([6]; twelve subjects, daily doses of up to 600 mg for up to six months): complete lack of adverse physical, biochemical or hematological effects
- complement activation (complement activation): inhibits complement activation
- autoantibody formation [7]: prevents autoantibody formation
